Assay results reported in patent US20240209019A1, “COMPOUNDS AND METHODS FOR TREATING HYPERKALEMIA” (ARDELYX, INC., priority 2019, published 2024).

target: HSD2 (Homo sapiens (Human), UniProt P80365); assay: HSD2 activity: cortisol conversion in human descending colon organoid monolayer cultures (Example 112); details: human descending colon epithelial cultures on transwells; 30 minute pre-incubation, then 40 nM cortisol for four hours; cortisol HTRF assay
Sequence (P80365 whole entry): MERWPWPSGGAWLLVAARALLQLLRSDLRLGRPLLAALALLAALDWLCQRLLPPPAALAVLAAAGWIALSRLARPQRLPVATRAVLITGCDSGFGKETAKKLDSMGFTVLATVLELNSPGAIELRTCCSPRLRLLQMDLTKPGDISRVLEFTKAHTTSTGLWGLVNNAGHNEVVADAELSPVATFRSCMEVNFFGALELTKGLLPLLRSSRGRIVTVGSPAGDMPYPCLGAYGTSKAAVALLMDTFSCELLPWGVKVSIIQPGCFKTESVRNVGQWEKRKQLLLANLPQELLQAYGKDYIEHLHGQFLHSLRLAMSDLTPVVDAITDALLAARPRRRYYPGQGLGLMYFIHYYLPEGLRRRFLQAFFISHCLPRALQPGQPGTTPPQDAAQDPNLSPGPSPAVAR
Description: Human descending colon epithelial stem cells were cultured as 3D organoids in accordance with Sato et al. Gastroenterology. […] Cultures were differentiated using SBM containing ENRA and 30 nM aldosterone on day 3, and cultures were used for assay on day 6 or 7. Compounds were diluted in DMSO and serial dilutions prepared by titrating in DMSO. Compounds were then diluted into DMEM/F12. Transwell plates containing descending colon cultures were washed twice with DMEM/F12 and compound was added to the apical compartment. Cells were incubated with test compound for 30 minutes at 37° C., 5% CO2 to equilibrate across the cell membrane. A second compound plate was prepared in which the serially diluted compounds in DMSO were diluted into DMEM/F12 containing 40 nM cortisol. Following the 30 minute pre-incubation step, the apical media was aspirated and compounds diluted in DMEM/F12 with 40 nM cortisol were added to the apical side of the transwell. The plate was then incubated for four hours at 37° C., 5% CO2. Cortisol levels were measured using a cortisol HTRF assay kit as described by the manufacturer (Cisbio). Concentration-response curves were then plotted and IC50 (and pIC50) values were determined using least squares non-linear regression.
Inhibition of HSD2 activity as measured by the inhibition of the conversion of cortisone to cortisol.

Q: How did the pIC50 turn out when “2-(3-((1-PEG5K-1H-1,2,3-triazol-4-yl)methoxy)-4-nitrobenzyl) 9-((5-methyl-2-oxo-1,3-dioxol-4-yl)methyl) (2S,4aS,6aS,6bR,8aR,9S,10S,12aS,12bR,14bR)-10-((2,5,8,11-tetraoxatetradecan-14-oyl)oxy)-2,4a,6a,6b,9,12a-hexamethyl-13-oxo-1,2,3,4,4a,5,6,6a,6b,7,8,8a,9,10,11,12,12a,12b,13,14b-icosahydropicene-2,9-dicarboxylate [Compound 605-2]” was run?
A: 6.9

Q: `CSCC(=O)O[C@H]1CC[C@@]2(C)[C@@H](CC[C@]3(C)[C@@H]2C(=O)C=C2[C@@H]4C[C@@](C)(C(=O)O)CC[C@]4(C)CC[C@]23C)[C@]1(C)C(=O)O` [(2S,4aS,6aS,6bR,8aR,9S,10S,12aS,12bR,14bR)-2,4a,6a,6b,9,12a-hexamethyl-10-{[2-(methylsulfanyl)acetyl]oxy}-13-oxo-1,2,3,4,4a,5,6,6a,6b,7,8,8a,9,10,11,12,12a,12b,13,14b-icosahydropicene-2,9-dicarboxylic acid] was tested. Which pIC50 did it give?
A: 5.4

Q: Which pIC50 does the source give for `CC(=O)O[C@H]1CC[C@@]2(C)[C@@H](CC[C@]3(C)[C@@H]2C(=O)C=C2[C@@H]4C[C@@](C)(C(=O)O)CC[C@]4(C)CC[C@]23C)[C@]1(C)C(=O)O` [(2S,4aS,6aS,6bR,8aR,9S,10S,12aS,12bR,14bR)-10-(acetyloxy)-2,4a,6a,6b,9,12a-hexamethyl-13-oxo-1,2,3,4,4a,5,6,6a,6b,7,8,8a,9,10,11,12,12a,12b,13,14b-icosahydropicene-2,9-dicarboxylic acid] here?
A: 5.9

Q: For `C[C@]1(C(=O)O)CC[C@]2(C)CC[C@]3(C)C(=CC(=O)[C@@H]4[C@@]5(C)CC[C@H](OC(=O)c6ccccc6)[C@@](C)(C(=O)O)[C@@H]5CC[C@]43C)[C@@H]2C1` [(2S,4aS,6aS,6bR,8aR,9S,10S,12aS,12bR,14bR)-10-(benzoyloxy)-2,4a,6a,6b,9,12a-hexamethyl-13-oxo-1,2,3,4,4a,5,6,6a,6b,7,8,8a,9,10,11,12,12a,12b,13,14b-icosahydropicene-2,9-dicarboxylic acid], which pIC50 is on record?
A: 6.6

Q: How did the pIC50 turn out when `C[C@]1(C(=O)O)CC[C@]2(C)CC[C@]3(C)C(=CC(=O)[C@@H]4[C@@]5(C)CC[C@H](OC(=O)C6CC6)[C@@](C)(C(=O)O)[C@@H]5CC[C@]43C)[C@@H]2C1` [(2S,4aS,6aS,6bR,8aR,9S,10S,12aS,12bR,14bR)-10-(cyclopropanecarbonyloxy)-2,4a,6a,6b,9,12a-hexamethyl-13-oxo-1,2,3,4,4a,5,6,6a,6b,7,8,8a,9,10,11,12,12a,12b,13,14b-icosahydropicene-2,9-dicarboxylic acid] was run?
A: 5.8

Q: `COCO[C@H]1CC[C@@]2(C)[C@@H](CC[C@]3(C)[C@@H]2C(=O)C=C2[C@@H]4C[C@@](C)(C(=O)O)CC[C@]4(C)CC[C@]23C)[C@]1(C)C(=O)O` [(2S,4aS,6aS,6bR,8aR,9S,10S,12aS,12bR,14bR)-10-(methoxymethoxy)-2,4a,6a,6b,9,12a-hexamethyl-13-oxo-1,2,3,4,4a,5,6,6a,6b,7,8,8a,9,10,11,12,12a,12b,13,14b-icosahydropicene-2,9-dicarboxylic acid] was tested. Which pIC50 did it give?
A: 5.1

Q: How did the pIC50 turn out when `CCOC(=O)c1cnn([C@H]2CC[C@@]3(C)[C@@H](CC[C@]4(C)[C@@H]3C(=O)C=C3[C@@H]5C[C@@](C)(C(=O)O)CC[C@]5(C)CC[C@]34C)[C@]2(C)C(=O)O)c1OC` [(2S,4aS,6aS,6bR,8aR,9S,10S,12aS,12bR,14bR)-10-[4-(ethoxycarbonyl)-5-methoxy-1H-pyrazol-1-yl]-2,4a,6a,6b,9,12a-hexamethyl-13-oxo-1,2,3,4,4a,5,6,6a,6b,7,8,8a,9,10,11,12,12a,12b,13,14b-icosahydropicene-2,9-dicarboxylic acid] was run?
A: 5.6

Q: For `C[C@]1(C(=O)O)CC[C@]2(C)CC[C@]3(C)C(=CC(=O)[C@@H]4[C@@]5(C)CC[C@H](OC(=O)CO)[C@@](C)(C(=O)O)[C@@H]5CC[C@]43C)[C@@H]2C1` [(2S,4aS,6aS,6bR,8aR,9S,10S,12aS,12bR,14bR)-10-[(2-hydroxyacetyl)oxy]-2,4a,6a,6b,9,12a-hexamethyl-13-oxo-1,2,3,4,4a,5,6,6a,6b,7,8,8a,9,10,11,12,12a,12b,13,14b-icosahydropicene-2,9-dicarboxylic acid], which pIC50 is on record?
A: 5.9
